Measured values taken from US20180087086A1, “CELL EGRESS AND INVASION INHIBITORS AND THEIR USE AS ANTIPARASITICAL AGENTS” (THE JOHNS HOPKINS UNIVERSITY, priority 2015, published 2018).

Columns and labels:
Assay type in all cases: cell-based
P. berghei sporozoites = test: in vitro sporozoite gliding assay (CSP trails on anti-CSP coated slides); conditions: for effect on gliding motility (comparison among the five compounds): 250-31.25 μM; for share of gliding sporozoites that were low gliding (less than 10 trails) / sporozoites gliding: lowest concentration of compound (31.25 μM)
Description: Compounds selected from the initial hit list were tested using in vitro gliding assays. Five compounds were selected for dose dependent testing on gliding motility based on early crystallographic experiments and first round gliding assay experiments at high concentration.
P. berghei sporozoites were purified from mosquitoes, incubated with compound, and allowed to glide on anti-CSP coated slides. The CSP-trails deposited by the gliding parasites were detected with anti-CSP antibodies. Trails were quantified for each sporozoite. The ability of each sporozoite to glide was categorized as no gliding (0 trails), and low (<10 trails), medium (10-20 trails), and high gliding (>20 trails).
In the DMSO control, more than 90% of sporozoites deposited trails, with >60% classified as medium and high gliding (>10 trails). […] At lower concentrations of compounds, the sporozoites did start to recover their gliding ability. However, for compound 4 at the lowest concentration of compound, less than 60% of the sporozoites were gliding and when they did glide, 90% of those sporozoites were depositing less than 10 trails and upon inspection of multiple fields, they typically could only complete one circular trail. For compound 18, less than 25% of sporozoites were able to glide at the lowest compound concentration and 75% of those sporozoites were low gliding, with less than 10 trails deposited; however, these low gliding parasites typically deposited more than 1 trail, unlike those from compound 4. […] However, from this single assay, it is not possible to assess whether the compounds were directly affecting the motor through the proposed TRAP-Aldolase interaction, by affecting an energy production step necessary to generate ATP for motor power, or by cytocidal effect.

[1] = test system: P. berghei parasites constitutively expressing mCherry; test: live imaging of mCherry expressing sporozoite gliding; conditions: for average gliding velocity: DMSO control 2.58+/−0.05 um/s; for total time spent gliding: 200 frame movies, control 46 frames; for pausing, fraction of active gliding time: control 7%; for waving sporozoites: manual assignment from z-stacks, control 15% waving
From the text: To determine the compound effects on the speed of gliding and type of gliding movement, live imaging of mCherry expressing parasites was used. P. berghei parasites constitutively expressing mCherry were allowed to settle on slides and imaged using an inverted microscope at 1.57 fps. ImageJ and the ToAST plugin were used to track parasites for a minimum of 150 frames in the 200 frame movies. The coordinates obtained via the automated tracking were much more useful than those using manual tracking. The ToAST plugin provides automatic identification of sporozoites from debris by aspect ratio and pixel analysis. The program also measures velocity and determine whether sporozoites are gliding in counterclockwise (CCW) or clockwise (CW) patterns, or whether they are stationary or waving, with large changes in vector angles between images.
Instead, the output position data was reanalyzed using similar algorithms as defined by ToAST. Sporozoites were assigned to one of four states at each time point, CW gliding, CCW gliding, stationary, or waving. To determine the speed of gliding, the average velocity was determined for sections of time in which the sporozoite was gliding continuously for more than 6 frames. Sporozoites would often glide for a number of frames and then stop gliding for a number of frames before continuing movement, resulting in more than one block of frames representing continuous gliding. The average for each sporozoite was a weighted average of the average speed during each block of gliding. The DMSO control parasites traveled in a CCW and CW pattern at an average speed of 2.58+/−0.05 um/s. […] Compound 4 gliding information was collected at a lower concentration compared to compound 18 because it was not possible to obtain a sufficient number of circularly gliding parasites for analysis at the higher concentrations (FIG. 11A).
As previously mentioned, sporozoites would often glide for several frames, then stop or pause, and then continue gliding. Upon initial observation of compound 4 samples, it was observed that parasites tended to glide in a stop-and-go manner, gliding for 4-6 frames and then stopping for 2-3 frames. To determine whether these pauses deviated from those observed in the control, the movies were analyzed to determine the total amount of time spent circularly gliding over the course of the 200 frame movies (FIG. 11C). Additionally, the fraction of time that the sporozoites paused for during active gliding was measured (FIG. 11D). A pause was defined as a cessation of circular gliding for no more than 10 frames. The fraction of paused frames to moving frames was measured for stretches of active gliding. […] Compound 4 increased pausing to 32% of the active gliding time, while compound 18 increased pauses to just 16% (FIG. 11D).
Z-stack images were created using ImageJ using the average intensity in each frame. From these frames, patterns of movements to one of two categories were assigned, circular gliding or waving. Waving sporozoites are defined as having on end attached while the other end moves or waves freely (FIG. 11F), resulting in large angular changes in the direction of the vector that lies along the sporozoite. Both compound 4 and 18 changed the ratio between gliding and waving sporozoites. In the control, nearly 85% of sporozoites are gliding circularly and 15% waving, whereas 72% and 66% are waving in compound 4 and 18 samples, respectively.

sporozoites [2] = test: sporozoite viability, 2 dye system of ethidium and calcein-AM; conditions: for viability at 62.5 µM: 0.25 h, 15 min at room temperature, DMSO 96%; for sporozoite viability (ethidium/calcein-AM): extended 15 min incubation at 37° C.
Description: FIG. 12A-FIG. 12C is a series of bar charts that show results of sporozoite viability assays. […] The total number of sporozoites was determined from phase images and the number of non-viable sporozoites from the count of red fluorescing sporozoites.
To further investigate viability, a 2 dye system of ethidium and calcein-AM was used to measure both membrane permeability, a marker of death, and enzyme activity, a marker of viability (FIG. 12B). Live cells with intact membranes are impermeable to the ethidium DNA dye but are permeable to the calcein-AM dye, which can interact with active esterases and will fluoresce green. Dying cells allow the ethidium to cross the membrane and interact with DNA, fluorescing red. This two color readout allowed discrimination between live versus dead sporozoites. Sporozoites were incubated at room temperature with two different concentrations of compounds for 15 min and then counted. […] Compound 4 and 18 at 62.5 μM reduced sporozoite viability to 82% and 88%, respectively. At these concentrations, assays could be performed such that the compounds would not kill the parasite. Instead, the compounds merely impaired parasite mobility, indicating an on-target effect of the small molecule on Aldolase-TRAP. By modulating this interaction, despite not killing the parasites at that point, a dramatic reduction in liver cell invasion was observed (FIG. 14A). […] As these dyes are unable to be fixed and sporozoites are not viable for long periods of time, it is possible that there are some viability variances due to difference in time from incubation with the dye until counting.

sporozoites [3] = test: sporozoite viability, LIVE/DEAD fixable violet assay
From the text: However, the viability decrease is not high enough to account for the levels of non-gliding sporozoites observed in the gliding assays.

sporozoites [4] = test: gliding motility assay with compound washout (reversibility)
Description: FIG. 13 B is a series of photomicrographs that show representative images from slides of gliding sporozoites. DMSO treated sporozoites (a, upper left) with circular gliding pattern versus (b, upper right) pyrazole-urea compound treated sporozoites with a unique wavy line gliding pattern. Below are images of a compound 4 washout slide at 7.8 μM showing a similar wavy gliding patterns in addition to circular gliding (c, d).
A gliding motility assay with a compound washout step was also performed to measure the reversibility of the compound's effects. The sporozoites were incubated at for a total of 20 min with the compound before they were washed and re-suspend and allowed to glide.

| Compound | effect on gliding motility (comparison among the five compounds) (P. berghei sporozoites) | share of gliding sporozoites that were low gliding (less than 10 trails) (P. berghei sporozoites) | sporozoites gliding (P. berghei sporozoites) | average gliding velocity ([1]; 3.9 μM) | total time spent gliding [1] | pausing, fraction of active gliding time [1] | waving sporozoites [1] | viability at 62.5 µM (sporozoites [2]) | sporozoite viability (ethidium/calcein-AM) (sporozoites [2]) | effect on viability in LIVE/DEAD assay (sporozoites [3]) | reversibility of gliding effect after washout (sporozoites [4]; any concentration) | number of high gliding parasites after washout, relative to DMSO control (sporozoites [4]; less than 8 μM) | total number of parasites gliding after washout (sporozoites [4]; less than 8 μM) | average gliding velocity ([1]; 62.5 μM) | reversibility of gliding effect after washout (sporozoites [4]; 31.25 μM) | reversibility of gliding effect after washout (sporozoites [4]; 62.5 μM) | reversibility of gliding effect after washout (sporozoites [4]; 15.625 and 7.8125 μM, 20 min incubation before wash) |
| --- | --- | --- | --- | --- | --- | --- | --- | --- | --- | --- | --- | --- | --- | --- | --- | --- | --- |
| Brc1ccc(Nc2nc3ccccc3nc2Nc2ccc(Br)cc2)cc1 [Compound 4, N,N′-bis(4-bromophenyl)-2,3-quinoxalinediamine] | greatest effect | 90% | less than 60% | 1.81+/−0.09 um/s | 25 frames | 32% | 72% | 82% | 66% | greater decrease in viability | no complete reversibility | 10% | comparable to wild type |  |  |  |  |
| CCCCn1c(N)c(C(=O)NCc2ccccc2)c2nc3ccccc3nc21 [Compound 18, 2-amino-N-benzyl-1-butyl-1H-pyrrolo[2,3-b]quinoxaline-3-carboxamide] | greatest effect | 75% | less than 25% |  | 16 frames | 16% | 66% | 88% | did not differ from the control | relatively mild |  |  |  | 1.88+/−0.17 um/s | the number of high-gliding parasites increased | little reversibility | completely reversible |
